Test system: PLC5 cell lines
Assay: MTT assay, growth inhibition of PLC5 cells
Format: cell-based
Conditions: PLC5, PLC5 cells
Experimental: (§1) The effect of individual test compounds on cell viability was assessed by using the MTT in 6 replicates. Sk-Hep-1 cells were seeded and incubated in 96-well, flat-bottomed plates for 24 hours, and were exposed to various concentrations of test compounds dissolved in DMSO (final concentration, 0.1%) for 48 hours. Controls received DMSO vehicle at a concentration equal to that in drug-treated cells. The medium was removed, replaced by 200 μL of 0.5 mg/mL MTT in 10% fetal bovine serum containing DMEM (Dulbecco's Modified Eagle Medium), and cells were incubated in the carbon dioxide incubator at 37° C. for 2 hours. Supernatants were removed from the wells and the reduced MTT dye was solubilized in 100 μL/well DMSO. Absorbance at 570 nm was determined on a plate reader.
Next, compounds 19, and 34-36 were screened against a panel of Hep3B cell lines for growth-inhibitory activities. […] Compounds 87-90, 95 and 96 were screened against a panel of PLC5 cell lines for growth-inhibitory activities.

Row | Compound | IC50 [µM]
1 | C#Cc1cccc(Nc2nc(Nc3ccc(Oc4ccc(Cl)c(Cl)c4)cc3)nc3cc(OC)c(OC)cc23)c1 [Compound 90, N^2-(4-(3,4-dichlorophenoxyl)phenyl)-N^4-(3-ethynylphenyl)-6,7-dimethoxyquinazoline-2,4-diamine] | 0.77
2 | C#Cc1cccc(Nc2nc(Nc3ccc(Cl)c(Oc4ccc(C#N)cc4)c3)nc3cc(OC)c(OC)cc23)c1 [Compound 87, 4-(2-chloro-5-((4-((3-ethynylphenyl)amino)-6,7-dimethoxyquinazolin-2-yl)amino)phenoxy)benzonitrile] | 8.2

Test system: SK-Hep-1 cell lines (a hepatocellular carcinoma (HCC) cell)
Assay: MTT assay, growth inhibition of SK-Hep-1 cells
Format: cell-based
Conditions: Homo sapiens, SK-HEP1, 48 h, SK-Hep-1 cells, 48 hours
Experimental: MTT assay was used to measure growth inhibition. […] MTT (3-(4,5-dimethylthiazol-2-yl)-2,5-diphenyl tetrazolium bromide) assay was performed as follow.
as §1
The SK-Hep1 cells were then analyzed with western blot assay and MTT assay.

Row | Compound | IC50 [µM]
3 | C#Cc1cccc(Nc2nc(Nc3cccc(NS(=O)(=O)c4ccccc4)c3)nc3cc(OC)c(OC)cc23)c1 [Compound 30, N-(3-(4-(3-ethynylphenylamino)-6,7-dimethoxyquinazolin-2-ylamino)phenyl)benzenesulfonamide] | < 10
4 | C#Cc1cccc(Nc2nc(Nc3ccc(Cl)c(C(F)(F)F)c3)nc3cc(OC)c(OC)cc23)c1 [Compound 18, N^2-(4-Chloro-3-(trifluoromethyl)phenyl)-N^4-(3-ethynylphenyl)-6,7-dimethoxy-quinazoline-2,4-diamine] | < 10
5 | COc1cc2nc(Cl)nc(Nc3cccc(O)c3)c2cc1OC [Compound 11, 3-(2-Chloro-6,7-dimethoxyquinazoline-4-ylamino)phenol] | > 40
6 | C#Cc1cccc(N(C)c2nc(Cl)nc3cc(OC)c(OC)cc23)c1 [Compound 9, 2-Chloro-N-(3-ethynylphenyl)-6,7-dimethoxy-N-methyl quinazoline-4-amine] | 10 to 20
7 | Clc1cccc(Nc2ccnc(Cl)n2)c1 [Compound 2, 2-Chloro-N-(3-chlorophenyl)pyrimidin-4-amine] | > 40
8 | C#Cc1cccc(Nc2nc(Nc3cccc(C#C)c3)c3cc(OC)c(OC)cc3n2)c1 [Compound 25, N^2,N^4-Bis(3-ethynylphenyl)-6,7-dimethoxyquinazoline-2,4-diamine] | < 10
9 | COc1cc2nc(Cl)nc(Nc3cccc(Cl)c3)c2cc1OC [Compound 10, 2-Chloro-N-(3-chlorophenyl)-6,7-dimethoxyquinazoline-4-amine] | 10 to 20
10 | C#Cc1cccc(Nc2ccnc(Cl)n2)c1 [Compound 1, 2-Chloro-N-(3-ethynylphenyl)pyrimidin-4-amine] | > 40
11 | C#Cc1cccc(Nc2nc(Nc3cccc(NS(=O)(=O)c4ccc(C(F)(F)F)cc4Br)c3)nc3cc(OC)c(OC)cc23)c1 [Compound 32, 2-Bromo-N-(3-(4-(3-ethynylphenylamino)-6,7-dimethoxyquinazolin-2-ylamino)phenyl)-4-(trifluoromethyl)benzenesulfonamide] | < 10
12 | FC(F)(F)c1cc(Nc2ccnc(Cl)n2)ccc1Cl [Compound 3, 2-Chloro-N-(4-chloro-3-(trifluoromethyl)phenyl)pyrimidin-4-amine] | > 40
13 | COc1cc2nc(Cl)nc(Nc3ccc(O)cc3C)c2cc1OC [Compound 15, 4-(2-Chloro-6,7-dimethoxyquinazoline-4-ylamino)-3-methylphenol] | > 40
14 | COc1cc2nc(Cl)nc(Nc3cccc(Oc4ccc(C#N)cc4)c3)c2cc1OC [Compound 16, 4-(3-(2-Chloro-6,7-dimethoxyquinazoline-4-ylamino)phenoxy)benzonitrile] | > 40
15 | C#Cc1cccc(Nc2nc(Nc3cccc(Cl)c3)nc3cc(OC)c(OC)cc23)c1 [Compound 20, N^2-(3-Chlorophenyl)-N^4-(3-ethynylphenyl)-6,7-dimethoxy quinazoline-2,4-diamine] | < 10
16 | COc1cc2nc(Cl)nc(Nc3ccc(Oc4ccccc4)cc3)c2cc1OC [Compound 14, 2-Chloro-6,7-dimethoxy-N-(4-phenoxyphenyl)quinazoline-4-amine] | 10 to 20
17 | Clc1nccc(NCc2ccccc2)n1 [Compound 5, N-Benzyl-2-chloropyrimidin-4-amine] | > 40
18 | C#Cc1cccc(Nc2nc(Nc3cccc(CC)c3)nc3cc(OC)c(OC)cc23)c1 [Compound 26, N^2-(3-ethylphenyl)-N^4-(3-ethynylphenyl)-6,7-dimethoxy quinazoline-2,4-diamine] | < 10
19 | COc1cc2nc(Cl)nc(NCc3ccccc3)c2cc1OC [Compound 17, N-Benzyl-2-chloro-6,7-dimethoxyquinazoline-4-amine] | 10 to 20
20 | COc1cc2nc(Cl)nc(Nc3cc(C)ccc3F)c2cc1OC [Compound 12, 2-Chloro-N-(2-fluoro-5-methylphenyl)-6,7-dimethoxy quinazoline-4-amine] | > 40
21 | C#Cc1cccc(Nc2nc(Nc3ccc(Oc4ccc(C#N)cc4)cc3)nc3cc(OC)c(OC)cc23)c1 [Compound 24, 4-(4-(4-(3-Ethynylphenylamino)-6,7-dimethoxyquinazolin-2-ylamino)phenoxy)benzonitrile] | 10 to 20
22 | C#Cc1cccc(Nc2ccnc(Nc3cccc(C#C)c3)n2)c1 [Compound 6, N^2,N^4-Bis(3-ethynylphenyl)pyrimidine-2,4-diamine] | < 10
23 | FC(F)(F)c1cc(Nc2ccnc(Nc3ccc(Cl)c(C(F)(F)F)c3)n2)ccc1Cl [Compound 7, N^2,N^4-Bis(4-chloro-3-(trifluoromethyl)phenyl)pyrimidine-2,4-diamine] | 10 to 20
24 | C#Cc1cccc(Nc2nc(NCc3ccc(OC)c(OC)c3)nc3cc(OC)c(OC)cc23)c1 [Compound 29, N^2-(3,4-dimethoxybenzyl)-N^4-(3-ethynylphenyl)-6,7-dimethoxyquinazoline-2,4-diamine] | < 10

Same assay, conditions: SK-Hep-1 (HCC) cells

Row | Compound | growth-inhibitory activity (MTT), in words
25 | C#Cc1cccc(Nc2ccnc(Nc3cccc(C#C)c3)n2)c1 [Compound 6, N^2,N^4-Bis(3-ethynylphenyl)pyrimidine-2,4-diamine] | more potent anti-tumor activity than the mono-substituted pyrimidine derivatives
26 | FC(F)(F)c1cc(Nc2ccnc(Nc3ccc(Cl)c(C(F)(F)F)c3)n2)ccc1Cl [Compound 7, N^2,N^4-Bis(4-chloro-3-(trifluoromethyl)phenyl)pyrimidine-2,4-diamine] | more potent anti-tumor activity than the mono-substituted pyrimidine derivatives

Same assay, conditions: SK-Hep-1 cells, 48 hours

Row | Compound | IC50 [µM]
27 | C#Cc1cccc(N(C)c2nc(Cl)nc3cc(OC)c(OC)cc23)c1 [Compound 9, 2-Chloro-N-(3-ethynylphenyl)-6,7-dimethoxy-N-methyl quinazoline-4-amine] | 12.3 ± 0.6
28 | C#Cc1cccc(Nc2nc(Nc3cccc(Oc4ccc(C#N)cc4)c3)nc3cc(OC)c(OC)cc23)c1 [Compound 23, 4-(3-(4-(3-Ethynylphenylamino)-6,7-dimethoxyquinazolin-2-ylamino)phenoxy)benzonitrile] | 3.9
29 | C#Cc1cccc(Nc2nc(Nc3cccc(NC(=O)c4ccccc4)c3)nc3cc(OC)c(OC)cc23)c1 [Compound 33, N-(3-(4-(3-ethynylphenylamino)-6,7-dimethoxyquinazolin-2-ylamino)phenyl)benzamide] | 2.65
30 | C#Cc1cccc(Nc2nc(NCc3ccc(Cl)c(C(F)(F)F)c3)nc3cc(OC)c(OC)cc23)c1 [Compound 27, N^2-(4-Chloro-3-(trifluoromethyl)benzyl)-N^4-(3-ethynylphenyl)-6,7-dimethoxyquinazoline-2,4-diamine] | 2.6
31 | COc1cc2nc(Cl)nc(Nc3ccc(Oc4ccccc4)cc3)c2cc1OC [Compound 14, 2-Chloro-6,7-dimethoxy-N-(4-phenoxyphenyl)quinazoline-4-amine] | 15.3 ± 0.6
32 | C#Cc1cccc(Nc2nc(Nc3cccc(NS(=O)(=O)c4cccc(C(F)(F)F)c4)c3)nc3cc(OC)c(OC)cc23)c1 [Compound 31, N-(3-(4-(3-Ethynylphenylamino)-6,7-dimethoxyquinazolin-2-ylamino)phenyl)-3-(trifluoromethyl)benzenesulfonamide] | 1.95
33 | C#Cc1cccc(Nc2nc(NCc3cccc(OC(F)(F)F)c3)nc3cc(OC)c(OC)cc23)c1 [Compound 28, N^4-(3-Ethynylphenyl)-6,7-dimethoxy-N^2-(3-(trifluoromethoxy)benzyl)quinazoline-2,4-diamine] | 2.55
34 | C#Cc1cccc(Nc2nc(Nc3ccc(Oc4ccc(C#N)cc4)cc3)nc3cc(OC)c(OC)cc23)c1 [Compound 24, 4-(4-(4-(3-Ethynylphenylamino)-6,7-dimethoxyquinazolin-2-ylamino)phenoxy)benzonitrile] | 14.5
